# Reference: ChEMBL document CHEMBL1201862, “PubChem BioAssay data set” (2004)
# Calls of active or inactive are those of the source.
# Tests used:
# [1] = target: T1, Mu-type opioid receptor (Homo sapiens, UniProt P35372); experiment: MOR agonists by imaging, SAR follow-up, image-based (AID 2352); assay type: functional
# [2] = target: T2, Delta-type opioid receptor (Homo sapiens, UniProt P41143); experiment: DOR agonists, SAR follow-up, image-based (AID 2370); assay type: functional
# [3] = target: T3, Kappa-type opioid receptor (Homo sapiens, UniProt P41145); experiment: KOR antagonists by imaging, SAR follow-up, image-based (AID 2348); assay type: functional
# [4] = target: T1, Mu-type opioid receptor; experiment: MOR antagonists, SAR follow-up, image-based (AID 2420); assay type: functional;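 note: compounds added before stimulation of receptor with agonist DAMGO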
# [5] = target: T3, Kappa-type opioid receptor; experiment: KOR agonist analogs, imaging readout, SAR follow-up, image-based (AID 2359); assay type: functional
# [6] = target: T2, Delta-type opioid receptor; experiment: DOR antagonists, SAR follow-up, image-based (AID 2357); assay type: functional
# [7] = target: T3, Kappa-type opioid receptor; experiment: kappa opioid receptor blockers, cell-based, luminescence, beta-arrestin, SAR follow-up (AID 2285); assay type: functional
# [8] = target: Eukaryotic translation initiation factor 4H (Homo sapiens, UniProt Q15056); experiment: eIF4H inhibition in translation initiation, SAR follow-up (AID 435011); assay type: functional
# [9] = target: Polyadenylate-binding protein 1 (Homo sapiens, UniProt P11940); experiment: PABP inhibition in translation initiation, SAR follow-up (AID 435018); assay type: functional
# [10] = test system: J774.A1; experiment: Confirmation of image-based Screening Assay for Inhibitors of Phagocytosis. [Related pubchem assays (depositor defined):AID1029, AID1643]; assay type: functional, cell-based; details: Mus musculus
# [11] = target: Protein Rev (Human immunodeficiency virus type 1 group M subtype B (isolate HXB2)(HIV-1), UniProt P04618); experiment: inhibitors of Rev binding to RRE RNA, dose response, biochemical, fluorescence polarization, HIV-1 (AID 434976); set-up: species or system Human immunodeficiency virus 1
# [12] = target: Female germline-specific tumor suppressor gld-1 (Caenorhabditis elegans, UniProt Q17339); experiment: inhibitors of GLD-1 binding to TGE RNA, dose response, biochemical, fluorescence polarization, C. elegans (AID 2802);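 note: fluorescence polarization of labeled TGE RNA bound by purified gld-1 protein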
# [13] = target: T4, RNA-binding protein pos-1 (Caenorhabditis elegans, UniProt G5EF15); experiment: inhibitors of POS-1/mex-3 RNA binding, dose response, biochemical, fluorescence polarization (AID 1964);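 note: purified POS-1 fused to maltose binding protein made in E. coli; potency of compounds blocking POS-1 binding to fluorescent RNA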
# T4 sequence (G5EF15 whole entry): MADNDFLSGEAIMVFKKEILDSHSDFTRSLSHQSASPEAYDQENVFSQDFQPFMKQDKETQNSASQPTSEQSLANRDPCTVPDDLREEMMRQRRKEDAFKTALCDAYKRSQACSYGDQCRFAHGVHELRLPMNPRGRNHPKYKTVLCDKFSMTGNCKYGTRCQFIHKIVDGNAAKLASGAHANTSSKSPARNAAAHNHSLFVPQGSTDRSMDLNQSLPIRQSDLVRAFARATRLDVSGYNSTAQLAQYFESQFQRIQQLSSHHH
# [14] = target: T5, Zinc finger protein mex-5 (Caenorhabditis elegans, UniProt Q9XUB2); experiment: MEX-5/TCR-2 RNA interaction inhibitors, dose response, biochemical, C. elegans, fluorescence polarization (AID 1960)
# T5 sequence (Q9XUB2 whole entry): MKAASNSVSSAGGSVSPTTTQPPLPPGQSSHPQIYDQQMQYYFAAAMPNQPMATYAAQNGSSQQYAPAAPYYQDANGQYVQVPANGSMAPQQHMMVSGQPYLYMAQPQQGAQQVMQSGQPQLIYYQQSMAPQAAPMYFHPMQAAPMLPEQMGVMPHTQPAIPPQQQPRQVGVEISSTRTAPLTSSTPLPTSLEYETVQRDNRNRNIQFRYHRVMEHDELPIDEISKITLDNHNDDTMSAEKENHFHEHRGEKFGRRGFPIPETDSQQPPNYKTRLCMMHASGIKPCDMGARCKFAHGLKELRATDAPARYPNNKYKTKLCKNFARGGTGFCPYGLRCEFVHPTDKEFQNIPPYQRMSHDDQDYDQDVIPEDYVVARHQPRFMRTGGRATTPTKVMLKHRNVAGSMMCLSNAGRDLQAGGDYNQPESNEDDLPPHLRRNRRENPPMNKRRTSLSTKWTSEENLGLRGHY
# [15] = Shn3 3'UTR reporter inhibitors, dose response, cell-based, Clone20 osteoblasts, firefly luciferase, cherry-picked (AID 624132); assay type: functional;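 note: firefly luciferase luminescence from reporter carrying the Shn3 3'UTR in osteoblasts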
# [16] = control 3'UTR Renilla luciferase suppression, dose response, counter-screen for Shn3 inhibitor project, cell-based, Clone20-Shn3RL, cherry-picked (AID 624133); assay type: functional
# [17] = target: Melanin-concentrating hormone receptor 1 (Homo sapiens, UniProt Q99705); experiment: Late-stage fluorescence-based counterscreen for antagonists of the G-protein coupled receptor 7 (GPR7): cell-based dose response assay to identify antagonists of the melanin-concentrating hormone receptor 1 (MCHR1). [Related pubchem assays (depositor defined):AID1861, AID1880, AID1952, AID2148, AID2251, AID2257, AID485339]; assay type: functional;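 note: stimulated with 30 nM MCH peptide agonist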
# [18] = target: T6, Neuropeptides B/W receptor type 1 (Homo sapiens, UniProt P48145); experiment: GPR7 antagonist potency, late-stage follow-up, cell-based, fluorescence, dose response (AID 463251); assay type: functional
# T6 sequence (P48145 whole entry): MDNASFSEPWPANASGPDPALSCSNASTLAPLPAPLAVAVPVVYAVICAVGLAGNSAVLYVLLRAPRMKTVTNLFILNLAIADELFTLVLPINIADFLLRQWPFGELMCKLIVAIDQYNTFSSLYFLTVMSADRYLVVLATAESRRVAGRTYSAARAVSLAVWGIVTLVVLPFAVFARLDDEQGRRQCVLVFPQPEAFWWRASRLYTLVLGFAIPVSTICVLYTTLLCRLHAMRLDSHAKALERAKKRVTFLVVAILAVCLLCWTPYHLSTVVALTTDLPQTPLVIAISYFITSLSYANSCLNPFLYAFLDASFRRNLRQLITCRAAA
# [19] = target: T1, Mu-type opioid receptor; experiment: SAR Analysis of Antagonists of the MOR Receptor using an Image-Based Assay - Set 3. [Related pubchem assays (depositor defined):AID1777, AID1785, AID1786, AID1966, AID2133, AID2136, AID2284, AID2285, AID2420]; assay type: functional
# [20] = target: T2, Delta-type opioid receptor; experiment: SAR Analysis of Antagonists of the DOR Receptor using an Image-Based Assay - Set 3. [Related pubchem assays (depositor defined):AID1777, AID1785]; assay type: functional
# [21] = target: T3, Kappa-type opioid receptor; experiment: SAR analysis of small molecule antagonists of the kappa opioid receptor via a luminescent beta-arrestin assay - Set 3. [Related pubchem assays (depositor defined):AID1777, AID1778, AID1785, AID1786, AID1966, AID2133, AID2136, AID2285, AID2495]; assay type: functional
# [22] = target: T3, Kappa-type opioid receptor; experiment: SAR analysis of Antagonists of the Kappa Opioid Receptor (KOR) using an Image-Based Assay - Set 4. [Related pubchem assays (depositor defined):AID1777, AID1785]; assay type: functional
# [23] = target: T7, Tyrosine-protein phosphatase non-receptor type 7 (Homo sapiens, UniProt P35236); experiment: redox-dependent HePTP inhibition, mechanism study, biochemical, fluorescence (AID 2068); assay type: functional
# T7 sequence (P35236 whole entry): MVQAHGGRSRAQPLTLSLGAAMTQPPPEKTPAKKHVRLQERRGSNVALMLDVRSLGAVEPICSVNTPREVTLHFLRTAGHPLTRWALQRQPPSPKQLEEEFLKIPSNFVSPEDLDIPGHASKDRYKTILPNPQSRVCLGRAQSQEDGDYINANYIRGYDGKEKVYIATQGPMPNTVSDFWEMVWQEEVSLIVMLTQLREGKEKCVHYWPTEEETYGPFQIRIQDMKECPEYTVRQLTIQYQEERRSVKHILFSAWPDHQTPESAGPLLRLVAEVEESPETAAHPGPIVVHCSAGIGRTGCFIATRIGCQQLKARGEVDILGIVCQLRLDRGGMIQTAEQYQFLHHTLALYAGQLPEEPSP
# [24] = test system: HeLa; experiment: HeLa cell cytotoxicity, dose response, cytotoxicity control, 24 h, cherry-picked samples (AID 504726); assay type: functional, cell-based; details: Homo sapiens;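 note: potency for cytotoxicity as loss of luminescence signal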
# [25] = target: ORF 73 (Human herpesvirus 8, UniProt O40947); experiment: inhibitors of C-LANA binding to LBS DNA, dose response, biochemical, fluorescence polarization, cherry-picked samples (AID 504725); set-up: species or system Human gammaherpesvirus 8;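 note: fluorescence polarization of a labeled DNA duplex reporting LANA DNA binding; potency is for inhibitors that block LANA binding to the DNA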
# [26] = target: T8, Small ubiquitin-related modifier 1 (Homo sapiens, UniProt P63165); experiment: inhibitors of SUMO1 peptide binding, dose response, biochemical, fluorescence polarization, uHTS hits (AID 624382); assay type: functional; details: read-out: IC50_Mean
# [27] = target: T9, Probable nicotinate-nucleotide adenylyltransferase (Staphylococcus aureus (strain N315), UniProt P65502); assay type: functional, Staphylococcus aureus subsp. aureus N315;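 for IC50 Mean: confirmatory dose-response retesting of NadD inhibitor hits first found in an ultra-high-throughput screen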
# [28] = target: T9, Probable nicotinate-nucleotide adenylyltransferase; assay type: functional, Staphylococcus aureus subsp. aureus N315; details: read-out: IC50_Mean
# [29] = target: T8, Small ubiquitin-related modifier 1; experiment: inhibitors of SUMO1 partner interactions, dose response, biochemical, FRET (AID 624383); assay type: functional; details: read-out: IC50_Mean
# [30] = target: T10, Rac GTPase-activating protein 1 (Homo sapiens, UniProt Q9H0H5); experiment: MgcRacGAP GTPase-activating activity inhibitors, confirmation, biochemical, ADP Hunter fluorescence, primary and confirmatory (AID 624330); assay type: functional
# T10 sequence (Q9H0H5 whole entry): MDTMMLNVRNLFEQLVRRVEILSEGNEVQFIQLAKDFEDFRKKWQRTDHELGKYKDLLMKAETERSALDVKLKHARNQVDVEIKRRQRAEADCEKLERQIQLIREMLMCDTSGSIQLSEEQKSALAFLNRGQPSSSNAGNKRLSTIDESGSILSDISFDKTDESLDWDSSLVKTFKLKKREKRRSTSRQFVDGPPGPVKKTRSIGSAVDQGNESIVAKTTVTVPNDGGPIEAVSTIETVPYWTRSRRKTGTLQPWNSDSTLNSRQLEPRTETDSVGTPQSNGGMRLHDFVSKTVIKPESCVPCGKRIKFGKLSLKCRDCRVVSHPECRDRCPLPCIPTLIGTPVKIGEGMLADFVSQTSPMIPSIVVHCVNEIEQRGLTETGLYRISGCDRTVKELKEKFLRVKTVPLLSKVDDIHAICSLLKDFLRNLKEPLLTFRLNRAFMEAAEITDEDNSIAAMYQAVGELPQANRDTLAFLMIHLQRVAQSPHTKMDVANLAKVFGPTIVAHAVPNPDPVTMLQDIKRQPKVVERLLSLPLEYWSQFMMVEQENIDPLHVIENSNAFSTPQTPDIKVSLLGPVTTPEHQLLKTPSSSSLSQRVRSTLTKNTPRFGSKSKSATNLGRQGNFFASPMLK
# [31] = target: T3, Kappa-type opioid receptor; assay type: functional
# [32] = target: Beta-galactosidase (Escherichia coli, UniProt Q8VNN2); assay type: functional
# [33] = target: T3, Kappa-type opioid receptor; assay type: functional; remark: listed apart in the source
# T1 sequence (P35372 whole entry): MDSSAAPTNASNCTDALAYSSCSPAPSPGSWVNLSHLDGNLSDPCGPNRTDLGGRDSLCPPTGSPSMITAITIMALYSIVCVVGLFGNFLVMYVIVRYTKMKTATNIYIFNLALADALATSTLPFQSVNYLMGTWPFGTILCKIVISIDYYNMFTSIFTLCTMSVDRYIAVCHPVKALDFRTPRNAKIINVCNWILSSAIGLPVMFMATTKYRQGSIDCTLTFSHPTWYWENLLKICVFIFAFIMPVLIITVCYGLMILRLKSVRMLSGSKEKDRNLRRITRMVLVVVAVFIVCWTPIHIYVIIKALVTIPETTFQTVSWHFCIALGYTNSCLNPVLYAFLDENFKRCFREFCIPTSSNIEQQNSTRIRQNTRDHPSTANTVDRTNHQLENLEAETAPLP
# T2 sequence (P41143 whole entry): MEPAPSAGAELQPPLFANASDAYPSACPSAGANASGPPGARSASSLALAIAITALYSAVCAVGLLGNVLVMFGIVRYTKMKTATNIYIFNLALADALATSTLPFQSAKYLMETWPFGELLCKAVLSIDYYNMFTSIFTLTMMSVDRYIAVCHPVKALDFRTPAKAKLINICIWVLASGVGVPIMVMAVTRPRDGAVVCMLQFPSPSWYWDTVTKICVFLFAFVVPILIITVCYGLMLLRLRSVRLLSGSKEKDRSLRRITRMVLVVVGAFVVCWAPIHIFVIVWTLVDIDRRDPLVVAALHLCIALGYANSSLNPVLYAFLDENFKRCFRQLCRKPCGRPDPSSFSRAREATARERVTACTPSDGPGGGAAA
# T3 sequence (P41145 whole entry): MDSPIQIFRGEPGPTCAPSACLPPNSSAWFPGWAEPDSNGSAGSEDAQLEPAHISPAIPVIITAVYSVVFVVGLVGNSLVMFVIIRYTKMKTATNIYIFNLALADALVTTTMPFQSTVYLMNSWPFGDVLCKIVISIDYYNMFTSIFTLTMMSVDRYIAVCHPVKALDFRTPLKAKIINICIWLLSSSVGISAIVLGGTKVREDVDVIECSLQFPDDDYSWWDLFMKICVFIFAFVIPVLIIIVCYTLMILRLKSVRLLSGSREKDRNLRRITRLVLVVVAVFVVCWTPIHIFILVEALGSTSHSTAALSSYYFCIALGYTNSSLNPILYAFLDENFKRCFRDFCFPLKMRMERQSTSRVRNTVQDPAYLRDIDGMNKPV
# T9 sequence (P65502 whole entry): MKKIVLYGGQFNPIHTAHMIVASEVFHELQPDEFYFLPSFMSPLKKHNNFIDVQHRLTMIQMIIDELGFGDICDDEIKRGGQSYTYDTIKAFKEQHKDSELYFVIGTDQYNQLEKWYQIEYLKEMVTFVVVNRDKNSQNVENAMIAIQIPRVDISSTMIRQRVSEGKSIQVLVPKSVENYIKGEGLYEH
# T8 sequence (P63165 whole entry): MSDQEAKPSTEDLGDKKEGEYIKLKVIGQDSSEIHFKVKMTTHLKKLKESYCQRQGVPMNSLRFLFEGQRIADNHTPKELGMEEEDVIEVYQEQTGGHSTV
# Sequence of Melanin-concentrating hormone receptor 1 (Q99705 whole entry): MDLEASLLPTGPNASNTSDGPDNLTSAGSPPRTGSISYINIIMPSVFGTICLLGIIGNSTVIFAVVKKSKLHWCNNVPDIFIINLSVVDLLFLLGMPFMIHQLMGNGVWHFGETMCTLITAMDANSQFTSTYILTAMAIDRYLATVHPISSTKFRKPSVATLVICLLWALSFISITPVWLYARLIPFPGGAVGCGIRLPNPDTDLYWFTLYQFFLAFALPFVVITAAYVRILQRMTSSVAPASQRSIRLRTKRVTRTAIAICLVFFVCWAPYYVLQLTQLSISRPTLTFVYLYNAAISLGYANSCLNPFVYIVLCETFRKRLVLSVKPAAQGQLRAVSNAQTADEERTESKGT
# Sequence of Protein Rev (P04618 whole entry): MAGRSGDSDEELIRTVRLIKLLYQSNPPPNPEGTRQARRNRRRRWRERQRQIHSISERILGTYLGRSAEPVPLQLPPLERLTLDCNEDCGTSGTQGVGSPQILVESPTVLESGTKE
# Sequence of ORF 73 (O40947 whole entry): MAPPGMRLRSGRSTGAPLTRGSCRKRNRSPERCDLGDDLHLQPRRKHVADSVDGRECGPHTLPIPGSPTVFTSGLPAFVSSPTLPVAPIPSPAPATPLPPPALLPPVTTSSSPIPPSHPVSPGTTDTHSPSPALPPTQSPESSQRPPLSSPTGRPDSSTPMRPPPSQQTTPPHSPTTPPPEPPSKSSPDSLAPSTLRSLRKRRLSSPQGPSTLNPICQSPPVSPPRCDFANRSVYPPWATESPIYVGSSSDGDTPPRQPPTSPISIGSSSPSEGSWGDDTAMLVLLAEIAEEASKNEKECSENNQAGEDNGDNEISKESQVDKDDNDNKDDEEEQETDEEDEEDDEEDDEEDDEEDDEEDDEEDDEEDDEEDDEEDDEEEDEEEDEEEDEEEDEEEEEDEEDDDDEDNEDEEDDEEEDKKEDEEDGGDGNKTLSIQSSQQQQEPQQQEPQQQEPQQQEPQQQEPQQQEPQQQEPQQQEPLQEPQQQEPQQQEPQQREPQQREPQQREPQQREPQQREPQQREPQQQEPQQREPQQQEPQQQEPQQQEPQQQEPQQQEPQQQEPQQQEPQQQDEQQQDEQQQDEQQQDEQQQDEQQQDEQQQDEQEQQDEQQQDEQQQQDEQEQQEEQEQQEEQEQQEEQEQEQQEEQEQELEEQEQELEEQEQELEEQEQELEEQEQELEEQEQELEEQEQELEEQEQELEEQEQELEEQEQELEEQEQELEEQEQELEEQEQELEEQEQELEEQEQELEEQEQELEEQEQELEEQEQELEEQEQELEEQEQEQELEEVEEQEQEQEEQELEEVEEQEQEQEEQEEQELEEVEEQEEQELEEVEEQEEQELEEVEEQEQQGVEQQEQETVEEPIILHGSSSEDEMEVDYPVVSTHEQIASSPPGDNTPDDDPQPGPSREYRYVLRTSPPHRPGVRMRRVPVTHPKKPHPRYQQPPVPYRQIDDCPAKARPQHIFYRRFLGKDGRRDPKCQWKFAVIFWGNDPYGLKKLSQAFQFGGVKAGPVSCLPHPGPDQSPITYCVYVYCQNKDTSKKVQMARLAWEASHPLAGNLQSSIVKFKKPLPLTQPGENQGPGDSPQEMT
# Sequence of Beta-galactosidase (Q8VNN2 whole entry): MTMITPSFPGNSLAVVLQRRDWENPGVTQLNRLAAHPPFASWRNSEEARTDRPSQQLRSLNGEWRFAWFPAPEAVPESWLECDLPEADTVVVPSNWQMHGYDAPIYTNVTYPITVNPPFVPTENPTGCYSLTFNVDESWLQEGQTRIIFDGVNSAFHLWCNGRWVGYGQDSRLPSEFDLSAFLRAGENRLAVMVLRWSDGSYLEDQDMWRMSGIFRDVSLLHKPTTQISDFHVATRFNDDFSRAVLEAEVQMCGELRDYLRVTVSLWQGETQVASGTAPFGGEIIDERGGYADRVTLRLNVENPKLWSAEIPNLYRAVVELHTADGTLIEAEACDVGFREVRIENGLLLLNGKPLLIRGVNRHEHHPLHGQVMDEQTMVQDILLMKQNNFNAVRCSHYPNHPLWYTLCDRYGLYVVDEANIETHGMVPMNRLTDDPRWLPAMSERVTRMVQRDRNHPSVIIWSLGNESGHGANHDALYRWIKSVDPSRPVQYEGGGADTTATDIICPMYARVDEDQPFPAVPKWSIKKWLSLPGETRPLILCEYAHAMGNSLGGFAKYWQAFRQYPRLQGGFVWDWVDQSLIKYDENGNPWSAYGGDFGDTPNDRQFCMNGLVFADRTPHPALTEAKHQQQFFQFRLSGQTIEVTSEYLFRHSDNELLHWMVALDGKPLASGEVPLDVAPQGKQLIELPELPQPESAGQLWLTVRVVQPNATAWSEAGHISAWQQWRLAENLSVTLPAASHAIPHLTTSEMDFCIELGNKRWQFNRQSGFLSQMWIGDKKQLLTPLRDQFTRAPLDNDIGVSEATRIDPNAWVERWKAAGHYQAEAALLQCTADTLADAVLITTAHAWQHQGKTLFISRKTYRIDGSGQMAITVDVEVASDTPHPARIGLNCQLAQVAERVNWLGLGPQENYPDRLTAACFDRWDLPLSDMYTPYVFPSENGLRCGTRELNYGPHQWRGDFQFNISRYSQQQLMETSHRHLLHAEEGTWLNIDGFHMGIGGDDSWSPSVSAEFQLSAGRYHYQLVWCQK
# Sequence of Polyadenylate-binding protein 1 (P11940 whole entry): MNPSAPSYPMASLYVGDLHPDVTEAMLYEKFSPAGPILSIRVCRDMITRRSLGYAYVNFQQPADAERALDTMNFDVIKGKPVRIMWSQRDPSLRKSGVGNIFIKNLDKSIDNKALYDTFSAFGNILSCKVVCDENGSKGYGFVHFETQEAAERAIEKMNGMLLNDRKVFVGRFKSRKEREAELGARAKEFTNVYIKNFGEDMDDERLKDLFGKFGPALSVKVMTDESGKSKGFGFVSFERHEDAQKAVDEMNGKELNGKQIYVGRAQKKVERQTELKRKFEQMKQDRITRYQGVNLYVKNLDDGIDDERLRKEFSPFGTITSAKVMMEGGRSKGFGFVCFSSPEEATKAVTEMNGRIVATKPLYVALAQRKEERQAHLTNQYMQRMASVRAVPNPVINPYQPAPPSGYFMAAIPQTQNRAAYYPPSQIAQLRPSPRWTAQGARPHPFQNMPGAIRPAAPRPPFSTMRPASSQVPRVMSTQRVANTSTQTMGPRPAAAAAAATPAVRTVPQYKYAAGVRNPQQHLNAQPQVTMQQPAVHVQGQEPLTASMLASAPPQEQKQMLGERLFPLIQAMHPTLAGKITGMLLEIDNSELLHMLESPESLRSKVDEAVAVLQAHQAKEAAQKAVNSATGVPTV
structure (smiles),measurement,setting,value
Cc1ccc(C)c(N2CCN(CCCNC(=O)Cn3c(=O)c4cccn4c4cccnc43)CC2)c1,EC50,[1],> 32 µM (inactive)
same,EC50,[2],> 32 µM (inactive)
same,IC50,[3],20.5 µM (inactive)
same,IC50,[4],> 32 µM (inactive)
same,EC50,[5],> 32 µM (inactive)
same,IC50,[6],> 32 µM (inactive)
same,IC50,[7],> 10 µM (inactive)
Cc1ccccc1NC(=O)CSc1ccc(-c2ccco2)nn1,IC50,[8],> 100 µM (inactive)
same,IC50,[9],> 100 µM (inactive)
Cc1c(C=NNC(=O)C2COc3ccccc3O2)c2ccccc2n1C (stereo not drawn),IC50,[10],> 25 µM (inactive)
CCOC(=O)Cn1c(=O)c(-c2cc(Br)ccc2N)nc2ccccc21,IC50,[11],4.53 µM (active)
same,IC50,[12],25.4 µM (inactive)
same,EC50,[13],> 300 µM (inconclusive)
same,EC50,[14],26.1 µM (inconclusive)
same,AC50,[15],758 nM (active)
same,AC50,[16],833 nM (active)
CC(=O)Nc1ccc(Oc2c(Cl)cnn(-c3ccc(C(C)C)cc3)c2=O)cc1,IC50,[17],6.3 µM (active)
same,IC50,[18],2.1 µM (active)
COc1ccc(CN(CCNC(=O)c2ccc(CNS(=O)(=O)c3ccccc3)cc2)C(C)C)cc1,IC50,[19],14.3 µM (inactive)
same,IC50,[20],> 32 µM (inactive)
same,IC50,[21],5.58 µM (active)
same,IC50,[22],1.79 µM (active)
CCOC(=O)CCNC(=O)Nc1ccc2nc(-c3ccco3)c(-c3ccco3)nc2c1,IC50,[23],683 nM (active)
O=S(=O)(O)c1cc(O)c2ccc(Nc3ccccc3)cc2c1,AC50,[24],241 µM (active)
same,AC50,[25],95.9 µM (active)
same,IC50,[26],> 66.6 µM (inactive)
same,IC50,[27],15.9 µM (active)
same,IC50,[28],40.3 µM (active)
same,IC50,[29],2.16 µM (active)
same,IC50,[30],40.9 µM (active)
CC/C(=N\Nc1ccnc2cc(Cl)ccc12)c1ccc(O)cc1,IC50,[31],4.88 µM (active)
same,EC50,[32],> 31.5 µM (inactive)
same,IC50,[33],2460 nM
